Laboratory results taken from PubChem BioAssay AID330 (DTP/NCI, 2004).
“And” between values parts separate entries of the source, which are not always exact repeats. Equal entries are not always repeated. Inconclusive results and toxic doses are left out.

Test system: P388 leukemia ip, CD2F1 mice, survival T/C
Assay: NCI In Vivo Anticancer Drug Screen. Data for tumor model P388 Leukemia (intraperitoneal) in CD2F1 (CDF1) mice
Conditions: endpoint: median survival time, higher = longer survival
In short: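 Mice carrying the transplanted tumor received test compound or vehicle. Survival was recorded in each group, and the value is the treated-group measurement divided by that of the vehicle-treated control group.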

[1] = dose: 60.0 mg/kg/injection, schedule: Q01DX005 (ip), vehicle: saline with Tween-80
[2] = dose: 25.0 mg/kg/injection, schedule: Q01DX005 (ip), vehicle: Klucel (hydroxypropylcellulose) (HPC)
[3] = dose: 50.0 mg/kg/injection, schedule: Q01DX009 (ip), vehicle: saline with Tween-80
[4] = dose: 100.0 mg/kg/injection, schedule: Q01DX009 (ip), vehicle: saline with Tween-80
[5] = dose: 200.0 mg/kg/injection, schedule: Q01DX009 (ip), vehicle: saline with Tween-80
[6] = dose: 50.0 mg/kg/injection, schedule: Q01DX009 (ip), vehicle: Klucel (hydroxypropylcellulose) (HPC)
[7] = dose: 100.0 mg/kg/injection, schedule: Q01DX009 (ip), vehicle: Klucel (hydroxypropylcellulose) (HPC)
[8] = dose: 50.0 mg/kg/injection, schedule: Q01DX005 (ip), vehicle: Klucel (hydroxypropylcellulose) (HPC)
[9] = dose: 100.0 mg/kg/injection, schedule: Q01DX005 (ip), vehicle: Klucel (hydroxypropylcellulose) (HPC)
[10] = dose: 50.0 mg/kg/injection, schedule: Q01DX009 (ip), vehicle: saline
[11] = dose: 100.0 mg/kg/injection, schedule: Q01DX009 (ip), vehicle: saline
[12] = dose: 100.0 mg/kg/injection, schedule: Q04DX003 (ip), vehicle: saline with Tween-80
[13] = dose: 200.0 mg/kg/injection, schedule: Q04DX003 (ip), vehicle: saline with Tween-80
[14] = dose: 400.0 mg/kg/injection, schedule: Q04DX003 (ip), vehicle: saline with Tween-80
[15] = dose: 100.0 mg/kg/injection, schedule: Q01DX001 (ip), vehicle: saline with Tween-80
[16] = dose: 200.0 mg/kg/injection, schedule: Q01DX001 (ip), vehicle: saline with Tween-80
[17] = dose: 400.0 mg/kg/injection, schedule: Q01DX001 (ip), vehicle: saline with Tween-80

C/C(=N\NC(=S)N1CCC(c2ccccc2)CC1)c1nccnc1C
T/C (dose: 50.0 mg/kg/injection, schedule: Q01DX005 (ip), vehicle: saline with Tween-80): 100 % of control | T/C (dose: 100.0 mg/kg/injection, schedule: Q01DX005 (ip), vehicle: saline with Tween-80): 102 % of control | T/C (dose: 200.0 mg/kg/injection, schedule: Q01DX005 (ip), vehicle: saline with Tween-80): 100 % of control

Cc1c2ccncc2c(CN(CCCl)CCCl)c2c3ccccc3n(C)c12
T/C (dose: 20.0 mg/kg/injection, schedule: Q01DX005 (ip), vehicle: saline): 150 % of control and 160 % of control | T/C (dose: 50.0 mg/kg/injection, schedule: Q01DX005 (ip), vehicle: saline): 118 % of control | T/C (dose: 100.0 mg/kg/injection, schedule: Q01DX005 (ip), vehicle: saline): 182 % of control

COP(=S)(OC)Oc1cc(Cl)c(Cl)cc1Cl
T/C (dose: 50.0 mg/kg/injection, schedule: Q04DX003 (ip), vehicle: saline): 100 % of control | T/C (dose: 100.0 mg/kg/injection, schedule: Q04DX003 (ip), vehicle: saline): 102 % of control | T/C (dose: 200.0 mg/kg/injection, schedule: Q04DX003 (ip), vehicle: saline): 103 % of control | T/C (dose: 400.0 mg/kg/injection, schedule: Q04DX003 (ip), vehicle: saline): 102 % of control

COc1ccc(C(CNC(=O)Cc2ccc(Oc3cc(CC(=O)NCC(OC)c4ccc(OC)c(OC)c4)ccc3OC)cc2)OC)cc1OC (stereo not given)
T/C [1]: 94 % of control | T/C (dose: 120.0 mg/kg/injection, schedule: Q01DX005 (ip), vehicle: saline with Tween-80): 86 % of control | T/C (dose: 240.0 mg/kg/injection, schedule: Q01DX005 (ip), vehicle: saline with Tween-80): 92 % of control

CCCCCCCCCCNCCSSc1ccccc1
T/C (dose: 6.25 mg/kg/injection, schedule: Q01DX005 (ip), vehicle: Klucel (hydroxypropylcellulose) (HPC)): 95 % of control | T/C (dose: 12.5 mg/kg/injection, schedule: Q01DX005 (ip), vehicle: Klucel (hydroxypropylcellulose) (HPC)): 100 % of control | T/C [2]: 102 % of control

COc1cc2c(cc1OC)C(CO)C1c3cc4c(cc3CCN1C2)OCO4 (stereo not given)
T/C (dose: 50.0 mg/kg/injection, schedule: Q04DX003 (ip), vehicle: distilled water + Tween-80): 98 % of control | T/C (dose: 100.0 mg/kg/injection, schedule: Q04DX003 (ip), vehicle: distilled water + Tween-80): 98 % of control | T/C (dose: 200.0 mg/kg/injection, schedule: Q04DX003 (ip), vehicle: distilled water + Tween-80): 96 % of control | T/C (dose: 400.0 mg/kg/injection, schedule: Q04DX003 (ip), vehicle: distilled water + Tween-80): 96 % of control

CCCCC/C=C/C/C=C\CCCCCCCC(=O)NC(Cc1ccc(C)cc1)c1ccccc1 (stereo not given)
T/C [3]: 98 % of control | T/C [4]: 100 % of control | T/C [5]: 100 % of control

NC(=O)c1ccc(=S)[nH]c1
T/C (dose: 12.5 mg/kg/injection, schedule: Q01DX009 (ip), vehicle: Klucel (hydroxypropylcellulose) (HPC)): 106 % of control | T/C (dose: 25.0 mg/kg/injection, schedule: Q01DX009 (ip), vehicle: Klucel (hydroxypropylcellulose) (HPC)): 103 % of control | T/C [6]: 97 % of control | T/C [7]: 103 % of control

O=c1c(N=Nc2ccccc2Cl)c(O)n(-c2ccc(Br)cc2)c(=S)n1-c1ccccc1
T/C (dose: 100.0 mg/kg/injection, schedule: Q04DX002 (ip), vehicle: saline with Tween-80): 96 % of control | T/C (dose: 200.0 mg/kg/injection, schedule: Q04DX002 (ip), vehicle: saline with Tween-80): 90 % of control | T/C (dose: 400.0 mg/kg/injection, schedule: Q04DX002 (ip), vehicle: saline with Tween-80): 90 % of control

CC1(C)N=C(N)N=C(N)N1c1ccc(C(N)=O)cc1
T/C [2]: 100 % of control and 101 % of control | T/C [8]: 99 % of control and 100 % of control | T/C [9]: 101 % of control and 98 % of control

CC1=C(C)C(=O)C2=C(OCCO2)C1=O
T/C (dose: 15.0 mg/kg/injection, schedule: Q01DX005 (ip), vehicle: Klucel (hydroxypropylcellulose) (HPC)): 100 % of control | T/C (dose: 30.0 mg/kg/injection, schedule: Q01DX005 (ip), vehicle: Klucel (hydroxypropylcellulose) (HPC)): 106 % of control | T/C (dose: 60.0 mg/kg/injection, schedule: Q01DX005 (ip), vehicle: Klucel (hydroxypropylcellulose) (HPC)): 104 % of control

COC(=O)c1c(OC)c(Cl)c2cc3c(c(O)c2c1C)C(=O)[C@@]1(O)C(=O)C=C(OC)[C@H](O)[C@@]1(O)C3=O
T/C (dose: 11.0 mg/kg/injection, schedule: Q01DX005 (ip), vehicle: saline with Tween-80): 103 % of control | T/C (dose: 22.0 mg/kg/injection, schedule: Q01DX005 (ip), vehicle: saline with Tween-80): 105 % of control | T/C (dose: 44.0 mg/kg/injection, schedule: Q01DX005 (ip), vehicle: saline with Tween-80): 89 % of control | T/C (dose: 88.0 mg/kg/injection, schedule: Q01DX005 (ip), vehicle: saline with Tween-80): 94 % of control | T/C (dose: 176.0 mg/kg/injection, schedule: Q01DX005 (ip), vehicle: saline with Tween-80): 99 % of control

CC1=NN(C(=O)c2ccncc2)C(=O)C1N=Nc1ccc(S(=O)(=O)Nc2ccccn2)cc1 (stereo not given)
T/C [3]: 92 % of control | T/C [4]: 90 % of control | T/C [5]: 103 % of control

N=C(N)c1ccc(N=Nc2cc(/C=C/c3ccccc3)ccc2O)cc1
T/C [8]: 110 % of control | T/C [9]: 92 % of control

CC(C)CC(N)C(=O)OCN1C(=O)C2C3C=CC(C2C1=O)C1C2C(=O)N(COC(=O)C(N)CC(C)C)C(=O)C2C31 (stereo not given)
T/C (dose: 12.5 mg/kg/injection, schedule: Q01DX009 (ip), vehicle: saline): 102 % of control and 105 % of control | T/C (dose: 25.0 mg/kg/injection, schedule: Q01DX009 (ip), vehicle: saline): 105 % of control and 108 % of control | T/C [10]: 109 % of control and 119 % of control | T/C [11]: 162 % of control and 177 % of control

CC1CC(C)(C)OB(OCCc2ccc(Cl)cc2Cl)O1 (stereo not given)
T/C [10]: 99 % of control | T/C [11]: 102 % of control | T/C (dose: 200.0 mg/kg/injection, schedule: Q01DX009 (ip), vehicle: saline): 100 % of control

S=C([S-])N[N-]c1ccccc1.S=C([S-])N[N-]c1ccccc1.[Ni]
T/C [12]: 97 % of control | T/C [13]: 100 % of control | T/C [14]: 100 % of control

COc1cc(C(=O)N/N=C/c2cccc3ccccc23)ccc1O
T/C [3]: 86 % of control | T/C [4]: 90 % of control | T/C [5]: 90 % of control

CCO/C=C1\CC(=O)N(c2ccc(F)c(Cl)c2)C1=O
T/C (dose: 25.0 mg/kg/injection, schedule: Q01DX001 (ip), vehicle: saline with Tween-80): 100 % of control | T/C (dose: 50.0 mg/kg/injection, schedule: Q01DX001 (ip), vehicle: saline with Tween-80): 100 % of control | T/C [15]: 98 % of control and 100 % of control | T/C [16]: 109 % of control | T/C [17]: 100 % of control

O=S(CF)c1ccc(Cl)cc1 (stereo not given)
T/C [12]: 93 % of control | T/C [13]: 102 % of control | T/C [14]: 107 % of control

Nc1ccc(/C=C/c2ccc3ncccc3c2)cc1
T/C (dose: 12.5 mg/kg/injection, schedule: Q01DX009 (ip), vehicle: saline with Tween-80): 100 % of control | T/C (dose: 25.0 mg/kg/injection, schedule: Q01DX009 (ip), vehicle: saline with Tween-80): 109 % of control | T/C [3]: 97 % of control

O=C(c1ccccc1)C(O)n1ccnc1 (stereo not given)
T/C (dose: 50.0 mg/kg/injection, schedule: Q01DX009 (ip), vehicle: distilled water + alcohol): 102 % of control | T/C (dose: 100.0 mg/kg/injection, schedule: Q01DX009 (ip), vehicle: distilled water + alcohol): 104 % of control | T/C (dose: 200.0 mg/kg/injection, schedule: Q01DX009 (ip), vehicle: distilled water + alcohol): 107 % of control

CC(C)CS(=O)(=O)c1ncnc2nc[nH]c12
T/C [8]: 102 % of control | T/C [9]: 97 % of control | T/C (dose: 200.0 mg/kg/injection, schedule: Q01DX005 (ip), vehicle: Klucel (hydroxypropylcellulose) (HPC)): 91 % of control

CCCCCCCCCCCCCCCCOc1ccc(S(=O)(=O)Nc2ccc(N)cc2O)cc1
T/C [6]: 110 % of control | T/C [7]: 94 % of control | T/C (dose: 200.0 mg/kg/injection, schedule: Q01DX009 (ip), vehicle: Klucel (hydroxypropylcellulose) (HPC)): 112 % of control

COC(=O)C1=C/CCCN(CCC2OCC(CBr)O2)/C=C\1C(=O)OC (stereo not given)
T/C [15]: 99 % of control | T/C [16]: 102 % of control | T/C [17]: 98 % of control

CCOC(=O)C1=C(c2ccccc2)N=c2ccccc2=S1C (stereo not given)
T/C (dose: 15.0 mg/kg/injection, schedule: Q01DX005 (ip), vehicle: saline with Tween-80): 96 % of control | T/C (dose: 30.0 mg/kg/injection, schedule: Q01DX005 (ip), vehicle: saline with Tween-80): 99 % of control | T/C [1]: 98 % of control and 94 % of control
